Measured values: BindingDB's records for doi:10.1021/jm00060a002 (Merck Reserch Laboratories, 1993)

Target: T1, Gag-Pol polyprotein [588-1027]/[588-1147] (Human immunodeficiency virus 1, UniProt P04585)
T1 construct: 588-1027; 588-1147
Test: Tested for inhibition against HIV-1 RT (used (poly)rC-(oligo)dG as the template)

With `CCc1cc(CCc2nc3ccccc3o2)c(N)nc1C` [3-[2-(1,3-benzoxazol-2-yl)ethyl]-5-ethyl-6-methylpyridin-2-amine] as the molecule, how does the IC50 read?
Its IC50 is 100 µM.

With `CCc1cc(CCc2nc3c(o2)CCCC3)c(=O)[nH]c1C` [5-ethyl-6-methyl-3-[2-(4,5,6,7-tetrahydro-1,3-benzoxazol-2-yl)ethyl]-1,2-dihydropyridin-2-one] as the molecule, how does the IC50 read?
The IC50 was 0.058 µM.
